According to patent publication US11174242B2, “Heteroaryl compounds and their use” (Minoryx Therapeutics S.L., priority 2016, dated 2021):
Residue numbers refer to the chain shown, from its start.

Key:
[1] = biological target: T1, β-glucocerebrosidase, p.L444P mutation (GM08760A fibroblasts) (Homo sapiens, UniProt P04062, L483P); test: Enhancement of β-glucocerebrosidase activity measured in Gaucher disease fibroblasts (L444P); format: cell-based; conditions: increase in enzyme activity vs non-treated cells, GBA fibroblasts bearing L444P
T1 construct: host or cells: human Gaucher patient fibroblasts GM08760A, homozygous L444P
T1 sequence (P04062 40-536 L483P): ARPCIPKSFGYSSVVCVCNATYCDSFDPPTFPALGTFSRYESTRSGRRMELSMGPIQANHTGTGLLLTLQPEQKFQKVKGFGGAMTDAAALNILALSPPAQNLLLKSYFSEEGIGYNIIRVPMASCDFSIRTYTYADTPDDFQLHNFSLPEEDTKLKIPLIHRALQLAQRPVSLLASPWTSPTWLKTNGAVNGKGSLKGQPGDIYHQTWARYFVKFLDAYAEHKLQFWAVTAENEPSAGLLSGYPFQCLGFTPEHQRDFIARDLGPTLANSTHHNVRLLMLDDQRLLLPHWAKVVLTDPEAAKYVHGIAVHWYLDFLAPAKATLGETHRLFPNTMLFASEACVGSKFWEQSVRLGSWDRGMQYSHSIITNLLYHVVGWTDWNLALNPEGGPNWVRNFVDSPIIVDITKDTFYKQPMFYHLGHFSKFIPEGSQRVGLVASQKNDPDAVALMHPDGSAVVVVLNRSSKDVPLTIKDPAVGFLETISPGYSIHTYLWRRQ
Procedure: Enhancement of β-Glucocerebrosidase Activity Measured in Gaucher Disease Fibroblasts Materials
Human fibroblasts from a patient with Gaucher disease homozygous for p.L444P mutation (GM08760A) were purchased from Coriell Institute for Medical Research (Camden, N.J., USA).
(§1) Fibroblasts were seeded at 5×10^3 cells per well in 96-well cell culture plates (Corning, N.Y., USA) in Dulbecco's Modified Eagle's Media (DMEM) supplemented with 10% of fetal bovine serum (FBS), 1% penicillin/streptomycin (P/S) (Thermo Fisher Scientific, Waltham, Mass., USA) and grown at 37° C., 5% CO2 overnight for cell attachment. Subsequently, cells were incubated in the absence or presence of the compounds at the desired concentration for 4 days. After incubation, cells were washed twice with phosphate-buffered saline (PBS) and enzyme activity assay was performed.
(§2) β-glucocerebrosidase activity in intact cultured cells was measured by using 4-methylumbelliferyl-β-D-glucopyranoside substrate (Apollo Scientific, UK). Briefly, cells were incubated with 4-MU-β-D-glucopyranoside in 0.1 M acetate buffer pH=4 at 37° C. for 1 hour. […] The liberated 4-MU was measured on a GloMax Discover plate reader (Promega, Madison, Wis., USA) with and excitation at 340 nm and emission at 460 nm. Enzyme activities were expressed in treated cells as X-fold increase in comparison with non-treated cells (X=1 represents no enhancement).
The capacity of the compounds of the disclosure to produce an increase in enzyme activity in GBA fibroblasts bearing L444P at concentrations between 6 and 50 μM is denoted as follows:
(§3) The following compounds listed in Table 2 were purchased (from Enamine, Princeton, Asinex, Vistas-M, and OSSK_541352) and tested in the assay as described above.

[2] = biological target: T2, β-glucocerebrosidase Wild Type (WT) (Homo sapiens, UniProt P04062); test: β-glucocerebrosidase activity enhancement, Wild Type (WT); format: cell-based; conditions: increase in enzyme activity vs non-treated cells; for Activity WT: commercially available compounds
T2 construct: endogenous in cells
T2 sequence (P04062 40-536): T1 sequence (P04062 40-536 L483P) with P444L
Procedure: as §1, §2, §3

[3] = commercially available compounds, 6-50 μM, 4 days
[4] = concentrations between 6 and 50 μM, 4 days incubation

Compound	Activity L444P [1, 3]	Activity WT [2]	Activity L444P [1, 4]	Activity Wild Type (WT) [2]
CCN(Cc1ccccc1)C(C)c1nc(N)nc(Nc2ccccc2)n1 (centres unmarked) [6-(1-(benzyl(ethyl)amino)ethyl)-N2-phenyl-1,3,5-triazine-2,4-diamine]	B (Increase in comparison with non-treated of >1.7-2.0 fold is shown as B)	B (Increase in comparison with non-treated of >1.7-2.0 fold is shown as B)		
Cc1ccc(Nc2nc(N)nc(CN3CCc4ccccc4C3)n2)cc1 [6-((3,4-dihydroisoquinolin-2(1H)-yl)methyl)-N2-(p-tolyl)-1,3,5-triazine-2,4-diamine]	B (Increase in comparison with non-treated of >1.7-2.0 fold is shown as B)	B (Increase in comparison with non-treated of >1.7-2.0 fold is shown as B)		
Cc1ccc(Nc2nc(N)nc(CN3CCCc4ccccc43)n2)cc1 [6-((3,4-dihydroquinolin-1(2H)-yl)methyl)-N2-(p-tolyl)-1,3,5-triazine-2,4-diamine]	C (Increase in comparison with non-treated of 1.2-1.7 fold is shown as C)	C (Increase in comparison with non-treated of 1.2-1.7 fold is shown as C)		
Nc1nc(CN2CCN(c3cccc(Cl)c3)CC2)nc(Nc2ccc3c(c2)OCCO3)n1 [6-((4-(3-chlorophenyl)piperazin-1-yl)methyl)-N2-(2,3-dihydrobenzo[b][1,4]dioxin-6-yl)-1,3,5-triazine-2,4-diamine]	B (Increase in comparison with non-treated of >1.7-2.0 fold is shown as B)	C (Increase in comparison with non-treated of 1.2-1.7 fold is shown as C)		
Cc1ccc(Nc2nc(N)nc(CN3CCN(Cc4ccc5c(c4)OCO5)CC3)n2)cc1 [6-((4-(benzo[d][1,3]dioxo1-5-ylmethyl)piperazin-1-yl)methyl)-N2-(p-tolyl)-1,3,5-triazine-2,4-diamine]	C (Increase in comparison with non-treated of 1.2-1.7 fold is shown as C)	B (Increase in comparison with non-treated of >1.7-2.0 fold is shown as B)		
CCc1ccc(CN(C)Cc2nc(N)nc(Nc3ccc(C)cc3)n2)cc1 [6-(((4-ethylbenzyl)(methyl)amino)methyl)-N2-(p-tolyl)-1,3,5-triazine-2,4-diamine]	C (Increase in comparison with non-treated of 1.2-1.7 fold is shown as C)	B (Increase in comparison with non-treated of >1.7-2.0 fold is shown as B)		
Cc1ccc(Nc2nc(N)nc(CN(C)c3ccc4ccccc4c3)n2)cc1 [6-((methyl(naphthalen-2-yl)amino)methyl)-N2-(p-tolyl)-1,3,5-triazine-2,4-diamine]	A (Increase in comparison with non-treated of >2.0 fold is shown as A)	C (Increase in comparison with non-treated of 1.2-1.7 fold is shown as C)		
Cc1ccc(Nc2nc(N)nc(CN(C)c3ccccc3)n2)cc1 [Example 1, 6-((Methyl(phenyl)amino)methyl)-N^2-(p-tolyl)-1,3,5-triazine-2,4-diamine]			C (Increase in comparison with non-treated of 1.2-1.7 fold is shown as C)	B (Increase in comparison with non-treated of >1.7-2.0 fold is shown as B)
COc1cccc(Nc2nc(N)nc(CN(C)c3ccccc3)n2)c1 [Example 3]			C (Increase in comparison with non-treated of 1.2-1.7 fold is shown as C)	B (Increase in comparison with non-treated of >1.7-2.0 fold is shown as B)
Cc1ccc(Nc2nc(N)nc(CN(C)Cc3ccccc3)n2)cc1 [Example 4, 6-((Benzyl(methyl)amino)methyl)-N^2-p-tolyl-1,3,5-trizine-2,4-diamine]			C (Increase in comparison with non-treated of 1.2-1.7 fold is shown as C)	A (Increase in comparison with non-treated of >2.0 fold is shown as A)
CN(Cc1ccccc1)Cc1nc(N)nc(Nc2ccc(Br)cc2)n1 [Example 5, 6-((Benzyl(methyl)amino)methyl)-N^2-(4-bromophenyl)-1,3,5-triazine-2,4-diamine]			C (Increase in comparison with non-treated of 1.2-1.7 fold is shown as C)	C (Increase in comparison with non-treated of 1.2-1.7 fold is shown as C)
COc1ccc(Nc2nc(N)nc(CN(C)Cc3ccccc3)n2)cc1 [Example 6, 6-((Benzyl(methyl)amino)methyl)-N^2-(4-methoxyphenyl)-1,35-triazine-2,4-diamine]			B (Increase in comparison with non-treated of >1.7-2.0 fold is shown as B)	B (Increase in comparison with non-treated of >1.7-2.0 fold is shown as B)
CN(Cc1ccccc1)Cc1nc(N)nc(Nc2cccc(Br)c2)n1 [Example 8]			B (Increase in comparison with non-treated of >1.7-2.0 fold is shown as B)	B (Increase in comparison with non-treated of >1.7-2.0 fold is shown as B)
COc1cccc(Nc2nc(N)nc(CN(C)Cc3ccccc3)n2)c1 [Example 9]			C (Increase in comparison with non-treated of 1.2-1.7 fold is shown as C)	B (Increase in comparison with non-treated of >1.7-2.0 fold is shown as B)
CN(Cc1ccccc1)Cc1cc(Nc2ccc3cnccc3c2)nc(N)n1 [Example 31, 6-((Benzyl(methyl)amino)methyl)-N^4-(isoquinolin-6-yl)pyrimidine-2,4-diamine]				A (Increase in comparison with non-treated of >2.0 fold is shown as A)
COc1ccccc1Nc1cc(N)nc(CN(C)Cc2ccccc2)n1 [Example 63, 2-((Benzyl(methyl)amino)methyl)-N^4-(2-methoxyphenyl)pyrimidine-4,6-diamine]			C (Increase in comparison with non-treated of 1.2-1.7 fold is shown as C)	
COc1ccc(Nc2cc(N)nc(CN(C)Cc3ccccc3)n2)cc1 [Example 66, 2-((Benzyl(methyl)amino)methyl)-N^4-(4-methoxyphenyl)pyrimidine-4,6-diamine]			B (Increase in comparison with non-treated of >1.7-2.0 fold is shown as B)	
COc1ccccc1Nc1nc(N)cc(CN2CCc3ccccc3C2)n1 [Example 71, (6-((3,4-Dihydroisoquinolin-2(1H)-yl)methyl)-N-(2-methoxyphenyl)pyrimidine-2,4-diamine)]			C (Increase in comparison with non-treated of 1.2-1.7 fold is shown as C)	
COc1ccccc1Nc1nc(N)nc(CN(C)Cc2ccc3ccccc3c2)n1 [N2-(2-methoxyphenyl)-6-((methyl(naphthalen-2-ylmethyl)amino)methyl)-1,3,5-triazine-2,4-diamine]	B (Increase in comparison with non-treated of >1.7-2.0 fold is shown as B)			
CN(Cc1cccc(F)c1)Cc1nc(N)nc(Nc2ccc(Cl)cc2)n1 [N2-(4-chlorophenyl)-6-(((3-fluorobenzyl)(methyl)amino)methyl)-1,3,5-triazine-2,4-diamine]	C (Increase in comparison with non-treated of 1.2-1.7 fold is shown as C)			
Nc1nc(CN2CCCC2c2ccccc2)nc(Nc2ccc(F)cc2)n1 (centres unmarked) [N2-(4-fluorophenyl)-6-((2-phenylpyrrolidin-1-yl)methyl)-1,3,5-triazine-2,4-diamine]	B (Increase in comparison with non-treated of >1.7-2.0 fold is shown as B)			
